Data as given in ChEMBL document CHEMBL5050844 (2019).

Key:
[1] = Induction of anti-CD3/CD28 antibodies-stimulated human T cell activation at 1 uM assessed fold increase in CD25 expression measured by ELISA assay; assay type: functional, T cell line
[2] = Induction of anti-CD3/CD28 antibodies-stimulated human T cell activation at 10 uM assessed fold increase in IFN-gamma secretion measured by ELISA assay; assay type: functional, T cell line
[3] = Induction of anti-CD3 antibodies-stimulated human exhausted T cell activation assessed fold increase in IFN-gamma secretion measured by ELISA assay; assay type: functional, T cell line; also: reference of the scale not given here
[4] = Induction of anti-CD3 antibodies-stimulated human T cell activation at 1.11 uM assessed fold increase in IFN-gamma secretion measured by ELISA assay; assay type: functional, T cell line; also: reference of the scale not given here
[5] = Induction of anti-CD3 antibodies-stimulated human T cell activation at 10 uM assessed fold increase in TNF-alpha secretion measured by ELISA assay; assay type: functional, T cell line; also: reference of the scale not given here
[6] = Induction of activation of human CD56+ CD3- NK cells co-cultured with human K562 cells in 1:1 ratio and assessed as increase in TNF-alpha secretion at 10 uM measured by ELISA assay; assay type: functional, Natural killer cell
[7] = Induction of anti-CD3/CD28 antibodies-stimulated human anergic T cell activation at 10 uM assessed fold increase in IFN-gamma secretion measured by ELISA assay; assay type: functional, T cell line
[8] = Induction of anti-CD3/CD28 antibodies-stimulated human T cell activation at 0.3 uM assessed fold increase in IL-2 secretion measured by ELISA assay; assay type: functional, T cell line
[9] = Induction of anti-CD3/CD28 antibodies-stimulated human CD4+ T cell activation at 10 uM assessed fold increase in CD69 expression measured by flow cytometry analysis; assay type: functional, T cell line
[10] = Induction of anti-CD3 antibodies-stimulated human T cell activation at 8 uM assessed fold increase in CD25 expression measured by ELISA assay; assay type: functional, T cell line; also: reference of the scale not given here
[11] = Induction of allogenic human T cell activation at 3 uM assessed fold increase in cell proliferation; assay type: functional, T cell line
[12] = Induction of anti-CD3/CD28 antibodies-stimulated human CD4+ T cell activation at 1.11 uM assessed fold increase in CD69 expression measured by flow cytometry analysis; assay type: functional, T cell line
[13] = Induction of anti-CD3 antibodies-stimulated human T cell activation at 1.11 uM assessed fold increase in TNF-alpha secretion measured by ELISA assay; assay type: functional, T cell line; also: reference of the scale not given here
[14] = Induction of allogenic human T cell activation at 10 uM assessed fold increase in cell proliferation; assay type: functional, T cell line
[15] = Induction of anti-CD3/CD28 antibodies-stimulated human T cell activation at 10 uM assessed fold increase in GM-CSF secretion measured by ELISA assay; assay type: functional, T cell line
[16] = molecular target: T1, E3 ubiquitin-protein ligase CBL-B (Homo sapiens, UniProt Q13191); assay: Binding affinity towards N-terminal biotinylated Avi-tagged human CBL-B (36 to 427 residues) measured by surface plasmon resonance assay
T1 sequence (Q13191 whole entry, the tested form may be a part): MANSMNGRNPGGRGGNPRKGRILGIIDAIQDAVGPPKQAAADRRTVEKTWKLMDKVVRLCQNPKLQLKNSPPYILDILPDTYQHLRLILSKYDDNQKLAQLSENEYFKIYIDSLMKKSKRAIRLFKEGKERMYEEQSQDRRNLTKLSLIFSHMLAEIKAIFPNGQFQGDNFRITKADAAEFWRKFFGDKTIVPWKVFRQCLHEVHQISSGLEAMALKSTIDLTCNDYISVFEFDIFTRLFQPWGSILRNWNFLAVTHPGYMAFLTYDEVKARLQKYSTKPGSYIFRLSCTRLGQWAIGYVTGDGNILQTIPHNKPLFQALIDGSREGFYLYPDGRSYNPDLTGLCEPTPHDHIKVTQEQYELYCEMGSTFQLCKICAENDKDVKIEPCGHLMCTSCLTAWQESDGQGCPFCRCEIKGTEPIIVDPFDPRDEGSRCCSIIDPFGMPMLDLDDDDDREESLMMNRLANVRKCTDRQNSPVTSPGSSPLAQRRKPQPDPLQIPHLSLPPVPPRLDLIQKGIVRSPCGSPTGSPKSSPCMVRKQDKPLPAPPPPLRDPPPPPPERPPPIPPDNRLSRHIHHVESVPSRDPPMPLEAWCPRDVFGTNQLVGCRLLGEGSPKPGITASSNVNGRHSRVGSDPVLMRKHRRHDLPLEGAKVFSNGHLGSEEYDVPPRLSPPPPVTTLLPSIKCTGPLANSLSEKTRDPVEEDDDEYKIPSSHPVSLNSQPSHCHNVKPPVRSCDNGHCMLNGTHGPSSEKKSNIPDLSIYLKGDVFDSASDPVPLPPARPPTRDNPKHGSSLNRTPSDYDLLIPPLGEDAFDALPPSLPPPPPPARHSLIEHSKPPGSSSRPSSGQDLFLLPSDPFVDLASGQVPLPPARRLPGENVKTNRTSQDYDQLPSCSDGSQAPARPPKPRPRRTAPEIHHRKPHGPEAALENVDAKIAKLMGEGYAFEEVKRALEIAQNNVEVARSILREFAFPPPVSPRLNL

[17] = molecular target: T1, E3 ubiquitin-protein ligase CBL-B; assay: Inhibition of N-terminal Avi-tagged human CBL-B (36 to 427 residues) incubated with 60 nM Src kinase for 1.5 hrs followed by incubation with fluorescently labeled UbcH5B-Ub for 1 hr and measured by TR-FRET assay; assay type: single protein

Kd [16] [nM]	IC50 [17] [nM]	Structure (SMILES)	fold change (FC) [1]	fold change (FC) [2]	fold change (FC) [3]	fold change (FC) [4]	fold change (FC) [5]	fold change (FC) [6]	fold change (FC) [7]	fold change (FC) [8]	fold change (FC) [9]	fold change (FC) [10]	fold change (FC) [11]	fold change (FC) [12]	fold change (FC) [13]	fold change (FC) [14]	fold change (FC) [15]
–	–	C[C@H](Cc1nncn1C)c1cccc(NC(=O)c2nc(C(F)(F)F)c[nH]2)c1	1.01	2.01	>1.61	<=2	1.51	2.01	2.51	1.01	1.401	>=1.001	<=2	1.201	<=1.5	<=2	2.01
< 100	< 100	C[C@H](Cc1nncn1C)c1cccc(N2Cc3c(cc(CN4CC[C@](C)(O)C4)cc3C(F)(F)F)C2=O)c1	1.31	>4	>1.61	<=2	2.01	2.01	>4.01	2.51	1.401	>=1.001	2.01	1.401	<=1.5	2.01	>4
–	–	Cc1cc(C(=O)Nc2cccc([C@@H](C)Cc3nncn3C)c2)nc(C2CC2)n1	1.01	>4	<=1.4	<=2	<=1.5	1.01	<=2.5	1.01	1.401	>=1.001	<=2	1.401	<=1.5	<=2	2.01
–	–	Cn1cnnc1[C@@H]1C[C@@H]1c1cccc(N2Cc3c(ccnc3C(F)(F)F)C2=O)c1	1.01	<=2	<=1.4	<=2	1.51	1.01	2.51	1.01	1.401	0.801	<=2	<=1.2	<=1.5	<=2	2.01
< 100	< 100	C[C@H](Cc1nncn1C)c1cccc(NC(=O)c2cc3cc(N4CCNCC4)ccc3cn2)c1.Cl	1.01	<=2	>1.61	<=2	<=1.5	1.01	2.51	<=1	1.401	0.801	<=2	1.201	<=1.5	<=2	2.01
< 100	< 100	COC1CN(Cc2cc3c(c(C(F)(F)F)c2)CN(c2cccc([C@@](C)(F)C(F)(F)c4nncn4C)c2)C3=O)C1	1.31	2.01	>1.61	3.01	1.51	>=5	>4.01	2.51	1.401	>=1.001	<=2	1.201	<=1.5	<=2	2.01
–	–	C[C@H](Sc1nncn1C)c1cccc(NC(=O)c2cc(C(=O)N3CC[C@H](O)C3)ccn2)c1	1.01	>4	<=1.4	3.01	2.01	<=1	2.51	<=1	>1.601	0.801	<=2	1.401	1.51	<=2	>4
–	< 100	Cn1cnnc1CC1(c2cccc(N3Cc4c(cc(CN5CC[C@H](C#N)C5)cc4C(F)(F)F)C3=O)c2)COC1	1.31	>4	<=1.4	<=2	1.51	2.01	2.51	5	1.401	>=1.001	<=2	1.201	<=1.5	2.01	>4
–	–	C[C@H](Cc1nncn1C)c1cccc(N2Cc3c(ccnc3C3CC3)C2=O)c1	1.01	2.01	>1.61	<=2	<=1.5	2.01	2.51	1.01	1.401	>=1.001	<=2	<=1.2	<=1.5	<=2	>4
< 100	< 100	Cc1n[nH]c(C)c1-c1cc2c(c(C(F)(F)F)c1)CN(c1cccc(C3(Cc4nncn4C)COC3)c1)C2=O	1.01	>4	1.41	<=2	1.51	2.01	>4.01	1.01	1.401	>=1.001	<=2	1.201	<=1.5	<=2	2.01
–	–	C[C@H](Cc1nncn1C)c1cccc(NC(=O)c2n[nH]c3c2CCC3)c1	1.01	2.01	<=1.4	2.01	<=1.5	1.01	<=2.5	1.01	1.201	0.801	<=2	1.401	<=1.5	<=2	2.01
–	–	C[C@H](Cc1nncn1C)c1cccc(NC(=O)c2cccc(CCO)n2)c1	1.01	>4	<=1.4	<=2	<=1.5	1.01	2.51	1.01	1.201	0.801	<=2	<=1.2	<=1.5	<=2	1.51
–	–	Cc1cc2c(c(C3CC3)n1)CN(c1cccc([C@H](C)Cc3nncn3C)c1)C2=O	1.01	<=2	<=1.4	<=2	<=1.5	1.01	2.51	1.01	1.201	0.801	<=2	<=1.2	<=1.5	<=2	2.01
–	< 100	Cn1cnnc1C(F)(F)[C@](C)(F)c1cccc(N2Cc3c(cc(CN4CC[C@@H](C#N)C4)cc3C(F)(F)F)C2=O)c1	1.31	>4	>1.61	2.01	2.01	>=5	>4.01	5	1.401	>=1.001	<=2	1.201	<=1.5	<=2	>4
